Laboratory results as given in patent US11136324B2, “Substituted imidazoles as apoptosis signal regulating kinase 1 inhibitors” (Jiangsu Hansoh Pharmaceutical Group Co., Ltd., priority 2017, dated 2021).

Tests used:
ASK1 kinase = ASK1 kinase (Homo sapiens (Human), UniProt Q99683); experiment: ASK1 enzymatic test (TR-FRET); assay type: biochemical; details: ASK1 kinase activity
Protocol: In this test, the fluorescence-resonance energy transfer (TR-FRET) method was used to determine the inhibition effect of the test compounds on ASK1 kinase activity, and the half maximal inhibitory concentration IC50 of the compounds on ASK1 kinase activity was obtained.
1) 1˜5 μL of ASK1 enzyme solution was added to a 384-well plate, and the final concentration of the enzyme was 0.220 nM.
2) 1˜5 μL of gradient-diluted compound solution was added.
3) 1˜5 μL of a substrate mixture containing substrate polypeptides (final concentration: 100˜5000 nM) and ATP (final concentration: 100˜1000 uM) were added.
4) The mixture was incubated at room temperature for 0.5 to 5 hours.
5) 10 μL of EDTA and test solution containing labeled antibody were added, and the plate was incubated at room temperature for 2 to 24 hours.
6) The fluorescence signal value of each well was determined by a microplate reader at about 615 nm and 665 nm.
7) The inhibition rate was calculated by the fluorescence signal value.
8) The IC50 of the compound was obtained by curve fitting according to the inhibition rate at different concentrations.

[1] = Pharmacokinetic (PK) assay in mice; assay type: in vivo; details: Balb/c male mice, single intragastric administration, 5 mg/kg, plasma; for AUC(0-t) / AUC(0-inf) / half-life / MRT / Cmax: mouse, po; for AUC(0-t): read-out: Area under curve AUC0-t; for AUC(0-inf): read-out: Area under curve AUC0-∞; for half-life: read-out: Half-life t1/2 (converted); for MRT: read-out: Mean residence time MRT; for Cmax: read-out: Plasma concentration Cmax
Protocol: 2. Pharmacokinetic (PK) Assay in Mice
The pharmacokinetic test of the preferred examples of the present invention in mice was carried out in Balb/c male mice (Shanghai Jiesijie Laboratory Animal Co., LTD).
Administration mode: single intragastric administration.
Administration dosage: 5 mg/10 ml/kg.
Formulation: 0.5% CMC-Na, ultrasonic dissolution.
Sampling points: 0.5, 1, 2, 4, 6, 8 and 24 hours after administration.
1) 0.1 mL of blood was taken from the orbit, placed in a K2EDTA tube, and centrifuged for 5˜20 min at room temperature at 1000˜3000×g to separate the plasma, which was then stored at −80° C.
2) 160 μL of acetonitrile was added to 40 μL of plasma sample for precipitation, and then the mixture was centrifuged for 5˜20 minutes at 500˜2000×g.
3) 100 μL, of processed supernatant was taken and analyzed by LC/MS/MS assay to determine the concentration of the test compound.
LC-MS/MS Assay: • Liquid chromatography condition: Shimadzu LC-20AD pump • Mass spectrometry condition: AB Sciex API 4000 mass spectrometer • Chromatographic column: phenomenex Gemiu 5 μm C18 50×4.6 mm • Mobile phase: solution A was 0.1% aqueous formic acid solution, and solution B was acetonitrile • Flow rate: 0.8 mL/min • Elution time: 0-3.5 minutes gradient elution
The main parameters were calculated using WinNonlin 6.1.

ASK1 kinase, sequence (Q99683 whole entry): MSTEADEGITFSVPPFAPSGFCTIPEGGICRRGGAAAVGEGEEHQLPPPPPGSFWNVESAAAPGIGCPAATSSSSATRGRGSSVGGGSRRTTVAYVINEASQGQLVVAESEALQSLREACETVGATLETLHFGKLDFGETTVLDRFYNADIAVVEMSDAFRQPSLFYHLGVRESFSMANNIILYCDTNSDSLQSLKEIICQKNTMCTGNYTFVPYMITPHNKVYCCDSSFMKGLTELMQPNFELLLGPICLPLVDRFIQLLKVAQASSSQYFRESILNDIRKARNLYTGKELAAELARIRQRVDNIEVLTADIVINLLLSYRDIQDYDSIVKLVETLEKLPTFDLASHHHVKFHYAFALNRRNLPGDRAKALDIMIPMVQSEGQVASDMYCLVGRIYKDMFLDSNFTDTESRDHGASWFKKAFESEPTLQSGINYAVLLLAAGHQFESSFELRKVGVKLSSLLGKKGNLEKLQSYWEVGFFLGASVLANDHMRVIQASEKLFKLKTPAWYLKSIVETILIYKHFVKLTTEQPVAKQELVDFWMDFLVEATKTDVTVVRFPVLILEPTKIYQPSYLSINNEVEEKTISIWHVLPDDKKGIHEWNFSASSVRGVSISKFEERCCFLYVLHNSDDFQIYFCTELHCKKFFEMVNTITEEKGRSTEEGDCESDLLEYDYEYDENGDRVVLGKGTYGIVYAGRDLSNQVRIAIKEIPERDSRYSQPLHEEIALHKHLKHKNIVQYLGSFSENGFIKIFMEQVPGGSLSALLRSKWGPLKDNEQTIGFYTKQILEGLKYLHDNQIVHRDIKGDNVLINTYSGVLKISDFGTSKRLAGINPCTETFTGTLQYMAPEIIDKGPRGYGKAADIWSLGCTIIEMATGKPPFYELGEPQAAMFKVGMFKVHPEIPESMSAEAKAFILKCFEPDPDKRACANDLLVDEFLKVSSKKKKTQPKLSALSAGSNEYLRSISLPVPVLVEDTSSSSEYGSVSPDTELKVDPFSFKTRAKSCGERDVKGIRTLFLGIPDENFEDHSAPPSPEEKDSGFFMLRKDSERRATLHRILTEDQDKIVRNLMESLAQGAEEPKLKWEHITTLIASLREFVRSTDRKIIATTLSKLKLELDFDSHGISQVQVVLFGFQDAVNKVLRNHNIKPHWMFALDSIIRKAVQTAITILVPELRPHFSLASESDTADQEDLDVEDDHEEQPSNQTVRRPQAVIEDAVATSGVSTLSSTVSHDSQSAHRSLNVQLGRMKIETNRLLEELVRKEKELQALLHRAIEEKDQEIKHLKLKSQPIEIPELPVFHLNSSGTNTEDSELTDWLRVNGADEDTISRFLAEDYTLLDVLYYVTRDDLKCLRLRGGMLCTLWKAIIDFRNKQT

| IC50 (ASK1 kinase) [nM] | Peak time tmax [1] [h] | AUC(0-t) [1] [ng·h/mL] | AUC(0-inf) [1] [ng·h/mL] | half-life [1] [h] | MRT [1] [h] | Cmax [1] [ng/mL] | Structure (SMILES) |
| --- | --- | --- | --- | --- | --- | --- | --- |
| 6 | 0.5 | 104000 | 104000 | 2.9 | 4.2 | 18300 | Cc1cc(F)c(C(=O)Nc2cccc(-c3nnc4n3CCC4)n2)cc1-n1cnc(C2CC2)c1 [Example 1, 5-(4-cyclopropyl-1H-imidazol-1-yl)-N-(6-(6,7-dihydro-5H-pyrrolo[2,1-c][1,2,4]triazol-3-yl)pyridin-2-yl)-2-fluoro-4-methylbenzamide] |
| 9.3 |  |  |  |  |  |  | Cc1cc(F)c(C(=O)Nc2cccc(-c3nnc4n3CCCCC4)n2)cc1-n1cnc(C2CC2)c1 [Example 2, 5-(4-Cyclopropyl-1H-imidazol-1-yl)-2-fluoro-4-methy 1-N-(6-(6,7,8,9-tetrahydro-5H-[1,2,4]triazolo[4,3-a]azepin-3-yl)pyridin-2-yl)benzamide] |
| 13.4 |  |  |  |  |  |  | Cc1cc(F)c(C(=O)Nc2cccc(-c3nnc4n3CCCC4)n2)cc1-n1cnc(C2CC2)c1 [Example 3, 5-(4-Cyclopropyl-1H-imidazol-1-yl)-2-fluoro-4-methyl-N-(6-(5,6,7,8-tetrahydro-[1,2,4]triazolo[4,3-a]pyridin-3-yl)pyridin-2-yl)benzamide] |
| 47.8 |  |  |  |  |  |  | Cc1cc(F)c(C(=O)Nc2cccc(-c3nnc4n3CCOC4)n2)cc1-n1cnc(C2CC2)c1 [Example 4, 5-(4-Cyclopropyl-1H-imidazol-1-yl)-N-(6-(5,6-dihydro-8H-[1,2,4]triazolo[3,4-c][1,4]oxazin-3-yl)pyridin-2-yl)-2-fluoro-4-methylbenzamide] |
| 19.6 |  |  |  |  |  |  | O=C(Nc1cccc(-c2nnc3n2CCC3)c1)c1cc(-n2cnc(C3CC3)c2)ccn1 [Example 7, 4-(4-Cyclopropyl-1H-imidazol-1-yl)-N-(3-(6,7-dihydro-5H-pyrrolo[2,1-c][1,2,4]triazol-3-yl)phenyl)picolinamide] |
| 1.8 | 1 | 29700 | 29800 | 2.7 | 4.6 | 4810 | Cc1cc(F)c(C(=O)Nc2cccc(-c3nnc4n3[C@H](C)CC4)n2)cc1-n1cnc(C2CC2)c1 [Example 8, (R)-5-(4-Cyclopropyl-1H-imidazol-1-yl)-2-fluoro-4-methyl-N-(6-(5-methyl-6,7-dihydro-5H-pyrrolo[2,1-c][1,2,4]triazol-3-yl)pyridin-2-yl)benzamide] |
| 5 | 0.5 | 38100 | 38400 | 4.4 | 5.5 | 4370 | Cc1cc(F)c(C(=O)Nc2cccc(-c3nnc4n3[C@@H](C)CC4)n2)cc1-n1cnc(C2CC2)c1 [Example 9, (S)-5-(4-Cyclopropyl-1H-imidazol-1-yl)-2-fluoro-4-methyl-N-(6-(5-methyl-6,7-dihydro-5H-pyrrolo[2,1-c][1,2,4]triazol-3-yl)pyridin-2-yl)benzamide] |
| 11.4 |  |  |  |  |  |  | Cc1cc(F)c(C(=O)Nc2cccc(-c3nnc4n3CC(C3CC3)C4)n2)cc1-n1cnc(C2CC2)c1 (stereo not shown) [Example 30, 5-(4-Cyclopropyl-1H-imidazol-1-yl)-N-(6-(6-cyclopropyl-6,7-dihydro-5H-pyrrolo[2,1-c][1,2,4]triazol-3-yl)pyridin-2-yl)-2-fluoro-4-methylbenzamide] |
| 10.9 |  |  |  |  |  |  | Cc1cc(F)c(C(=O)Nc2cccc(-c3nnc4n3CC3(CC3)C4)n2)cc1-n1cnc(C2CC2)c1 [Example 31, N-(6-(5′H,7′H-Spiro[cyclopropane-1,6′-pyrrolo[2,1-c][1,2,4]triazol]-3′-yl)pyridin-2-yl)-5-(4-cyclopropyl-1H-imidazol-1-yl)-2-fluoro-4-methylbenzamide] |
|  | 1 | 107000 | 108000 | 3.7 | 5 | 13500 | Cc1cc(F)c(C(=O)Nc2cccc(-c3nnc4n3C[C@@H](C)C4)n2)cc1-n1cnc(C2CC2)c1 [Example 35, (S)-5-(4-Cyclopropyl-1H-imidazol-1-yl)-2-fluoro-4-methyl-N-(6-(6-methyl-6,7-di hydro-5H-pyrrolo[2,1-c][1,2,4]triazol-3-yl)pyridin-2-yl)benzamide] |
| 9.1 |  |  |  |  |  |  | CO[C@H](C)[C@H]1CCc2nnc(-c3cccc(NC(=O)c4cc(-n5cnc(C6CC6)c5)c(C)cc4F)n3)n21 [Example 36, 5-(4-Cyclopropyl-1H-imidazol-1-yl)-2-fluoro-N-(6-((R)-5-((R)-1-methoxyethyl)-6,7-di hydro-5H-pyrrolo[2,1-c][1,2,4]triazol-3-yl)pyridin-2-yl)-4-methylbenzamide] |
| 3.6 |  |  |  |  |  |  | C#CC1CCc2nnc(-c3cccc(NC(=O)c4cc(-n5cnc(C6CC6)c5)c(C)cc4F)n3)n21 (stereo not shown) [Example 44, 5-(4-Cyclopropyl-1H-imidazol-1-yl)-N-(6-(5-ethynyl-6,7-dihydro-5H-pyrrolo[2,1-c][1,2,4]triazol-3-yl)pyridin-2-yl)-2-fluoro-4-methylbenzamide] |
| 6.1 |  |  |  |  |  |  | Cc1cc(F)c(C(=O)Nc2cccc(-c3nnc4n3[C@H](CC#N)CC4)n2)cc1-n1cnc(C2CC2)c1 [Example 48, (S)—N-(6-(5-(Cyanomethyl)-6,7-dihydro-5H-pyrrolo[2,1-c][1,2,4]triazol-3-yl)pyridin-2-yl)-5-(4-cyclopropyl-1H-imidazol-1-yl)-2-fluoro-4-methylbenzamide] |
| 9.6 |  |  |  |  |  |  | Cc1cc(F)c(C(=O)Nc2cccc(-c3nnc4n3[C@H](CO)CC4)n2)cc1-n1cnc(C2CC2)c1 [Example 50, (S)-5-(4-Cyclopropyl-1H-imidazol-1-yl)-2-fluoro-N-(6-(5-(hydroxymethyl)-6,7-dihydro-5H-pyrrolo[2,1-c][1,2,4]triazol-3-yl)pyridin-2-yl)-4-methylbenzamide] |
|  | 0.5 | 70500 | 70600 | 3 | 4.7 | 9970 | Cc1cc(F)c(C(=O)Nc2cccc(-c3nnc4n3[C@@H](CF)CC4)n2)cc1-n1cnc(C2CC2)c1 [Example 52, (R)-5-(4-Cyclopropyl-1H-imidazol-1-yl)-2-fluoro-N-(6-(5-(fluoromethyl)-6,7-dihydro-5H-pyrrolo[2,1-c][1,2,4]triazol-3-yl)pyridin-2-yl)-4-methylbenzamide] |
| 8.2 |  |  |  |  |  |  | Cc1cc(Cl)c(C(=O)Nc2cccc(-c3nnc4n3[C@H](C)CC4)n2)cc1-n1cnc(C2CC2)c1 [Example 53, (R)-2-Chloro-5-(4-cyclopropyl-1H-imidazol-1-yl)-4-methyl-N-(6-(5-methyl-6,7-dihydro-5H-pyrrolo[2,1-c][1,2,4]triazol-3-yl)pyridin-2-yl)benzamide] |
| 3 |  |  |  |  |  |  | Cc1cc(F)c(C(=O)Nc2cccc(-c3nnc4n3C3(CC4)CC3)n2)cc1-n1cnc(C(C)C)c1 [Example 62, N-(6-(6′,7′-Dihydrospiro[cyclopropane-1,5′-pyrrolo[2,1-c][1,2,4]triazol]-3′-yl)pyridin-2-yl)-2-fluoro-5-(4-isopropyl-1H-imidazol-1-yl)-4-methylbenzamide] |
| 8.4 |  |  |  |  |  |  | Cc1cc2c(cc1-n1cnc(C3CC3)c1)C(=O)N(c1cccc(-c3nnc4n3CCC4)n1)C2 [Example 63, 6-(4-Cyclopropyl-1H-imidazol-1-yl)-2-(6-(6,7-dihydro-5H-pyrrolo[2,1-c][1,2,4]triazol-3-yl)pyridin-2-yl)-5-methylisoindolin-1-one] |
